# Data taken from publication PMC10516900 (Communications Biology, 2023).
# “And” between values parts separate entries of the source, which are not always exact repeats. Equal values may be shown once.
# B1: hUSP47CD-UBL12: human USP47 catalytic domain with the first two UBL domains, residues 1-794 (protein, UniProt Q96K76 1-794, looked up, fragment)
# chain: MVPGEENQLVPKEDVFWRCRQNIFDEMKKKFLQIENAAEEPRVLCIIQDTTNSKTVNERITLNLPASTPVRKLFEDVANKVGYINGTFDLVWGNGINTADMAPLDHTSDKSLLDANFEPGKKNFLHLTDKDGEQPQILLEDSSAGEDSVHDRFIGPLPREGSGGSTSDYVSQSYSYSSILNKSETGYVGLVNQAMTCYLNSLLQTLFMTPEFRNALYKWEFEESEEDPVTSIPYQLQRLFVLLQTSKKRAIETTDVTRSFGWDSSEAWQQHDVQELCRVMFDALEQKWKQTEQADLINELYQGKLKDYVRCLECGYEGWRIDTYLDIPLVIRPYGSSQAFASVEEALHAFIQPEILDGPNQYFCERCKKKCDARKGLRFLHFPYLLTLQLKRFDFDYTTMHRIKLNDRMTFPEELDMSTFIDVEDEKSPQTESCTDSGAENEGSCHSDQMSNDFSNDDGVDEGICLETNSGTEKISKSGLEKNSLIYELFSVMVHSGSAAGGHYYACIKSFSDEQWYSFNDQHVSRITQEDIKKTHGGSSGSRGYYSSAFASSTNAYMLIYRLKDPARNAKFLEVDEYPEHIKNLVQKERELEEQEKRQREIERNTCKIKLFCLHPTKQVMMENKLEVHKDKTLKEAVEMAYKMMDLEEVIPLDCCRLVKYDEFHDYLERSYEGEEDTPMGLLLGGVKSTYMFDLLLETRKPDQVFQSYKPGEVMVKVHVVDLKAESVAAPITVRAYLNQTVTEFKQLISKAIHLPAETMRIVLERCYNDLRLLSVSSKTLKAEGFFRSNKVFV
# modifications: catalytic domain with UBL1-2
# Columns and labels:
# [1] = molecular target: cUSP47CD (Caenorhabditis elegans, UniProt Q22240); experiment: Ub-AMC enzymatic inhibition assay, cUSP47CD; format: biochemical; parameters: Residual enzymatic activity, cUSP47CD_IC50(p50429): unit not given here
# Method: (§1) Enzymes and substrates were diluted in the reaction buffer (20 mM HEPES, pH 7.4, 150 mM NaCl, and 5 mM DTT) to a concentration of 5 μM for the substrate and 0.5 μM for the enzymes. At the indicated time points following the reaction initiation, 10 μL reaction aliquots were taken and the reaction was stopped by adding SDS sampling buffer and analyzed using SDS-PAGE. Then, the 4–15% gradient gel was stained with Coomassie Brilliant Blue R-250. USP enzymatic activity and inhibition assays were measured at room temperature using the cleavage-sensitive fluorogenic substrate Ub-AMC (Boston Biochem, U-550). The deubiquitination assay was performed following the protocol by Ernst et al.[30]. Briefly, enzyme activity assays were performed in assay buffer in 20 mM HEPES (pH 7.4), 100 mM NaCl, and 5 mM DTT) containing cUSP47CD (in 50 nM), hUSP47CD-UBL12 (in 100 nM) or hUSP7CD (in 100 nM) constructs and serial dilutions of Ub-AMC (final 35 μM). The AMC fluorescence emission was monitored at 460 nm (excitation at 380 nm) for 30–60 min using a SpectraMax M3 plate reader (Molecular Devices). […] The data were fitted using GraphPad Prism 7 (GraphPad Inc.). Fluorescence intensity was recorded every 45 s for 90 min. Data are presented as the mean ± SD (n = 3).
# [2] = tested on: USP7; conditions: cited from earlier work; for potency and specificity for USP7: recently reported USP7 inhibitors
# [3] = molecular target: T1, hUSP7CD^N460AH461A (Homo sapiens, UniProt Q93009, H461A/N460A); experiment: Ub-AMC enzymatic inhibition assay, hUSP7CD^N460AH461A; format: biochemical; conditions: FT671 5 μM, Fig. 5d
# T1 construct: Swiss Prot entry: Q93009, residues 208–560; His6 (N); made in house; host or cells: E. coli BL21 (DE3) codon plus RIL
# Method: (§2) Enzymes and substrates were diluted in the reaction buffer (20 mM HEPES, pH 7.4, 150 mM NaCl, and 5 mM DTT) to a concentration of 5 μM for the substrate and 0.5 μM for the enzymes. […] USP enzymatic activity and inhibition assays were measured at room temperature using the cleavage-sensitive fluorogenic substrate Ub-AMC (Boston Biochem, U-550). […] The AMC fluorescence emission was monitored at 460 nm (excitation at 380 nm) for 30–60 min using a SpectraMax M3 plate reader (Molecular Devices). […] The data were fitted using GraphPad Prism 7 (GraphPad Inc.). Fluorescence intensity was recorded every 45 s for 90 min. Data are presented as the mean ± SD (n = 3).
# [4] = tested on: cUSP47CD^R309N; experiment: Ub-AMC enzymatic inhibition assay, cUSP47CD^R309N; format: biochemical, Caenorhabditis elegans; conditions: FT671 5 μM, Fig. 5d
# Method: as §1
# [5] = tested on: cUSP47CD^R309NA416NA417H; experiment: Ub-AMC enzymatic inhibition assay, cUSP47CD^R309NA416NA417H; format: biochemical, Caenorhabditis elegans; conditions: FT671 5 μM, Fig. 5d, compared with the double mutant
# Method: as §1
# [6] = molecular target: T2, hUSP7CD (Homo sapiens, UniProt Q93009); experiment: Ub-AMC enzymatic inhibition assay, hUSP7CD; format: biochemical
# T2 construct: Swiss Prot entry: Q93009, residues 208–560; His6 (N); made in house; host or cells: E. coli BL21 (DE3) codon plus RIL
# Method: as §2
# [7] = tested on: cUSP47CD^A416NA417H; experiment: Ub-AMC enzymatic inhibition assay, cUSP47CD^A416NA417H; format: biochemical, Caenorhabditis elegans; conditions: FT671 5 μM, Fig. 5d
# Method: as §1
# [8] = molecular target: T3, Flag-USP7 (Homo sapiens, UniProt Q93009); experiment: Immunoprecipitation and DUB assay with K48-linked ubiquitin chains, Flag-USP7 from treated HEK293T cells; format: cell-based; conditions: HEK293T cells treated for 2 h, immunoprecipitated Flag-USP7, Fig. 2f
# T3 construct: expressed in transfected cells; host or cells: HEK293T
# Method: Fig. 2 Biochemical properties of USP47. a Domain structure of USP47 and the constructs used in this study. b HEK293T cells were transfected with USP Flag-tagged mutants. […] The IC50 values were determined in triplicate and fitted to a four-parameter logistic dose-response curve. Data are expressed as means ± SD.
# HEK293T cells transfected with pFlag-CMV-2 vector, pFlag-USP7, or pFlag-USP47 were treated with drugs, as indicated, and lysed by protein lysis buffer (20 mM Tris–Cl, 150 mM NaCl, 1 mM EDTA, 1 mM EGTA, 1% Triton X-100, 2.5 mM sodium pyrophosphate, 50 mM NaF, 5 mM β-glycerophosphate, 1 mM Na3VO4, 1x protease inhibitor, pH 7.5). […] Flag affinity gel was washed 5 times with lysis buffer and the supernatant was removed carefully with a syringe after the last wash step. For elution, Flag agarose was incubated with 3× Flag peptide (Sigma Aldrich) in elution buffer (15 μg of Flag peptide in 50 μl of lysis buffer) for 30 min at 4 °C. The supernatants were collected as immunoprecipitates. […] Samples were analyzed by Western blot and detected with the anti-ubiquitin antibody.
# [9] = tested on: USP47; conditions: cited from earlier work
# [10] = tested on: HCT116 (p53+/+) cells; experiment: Q-PCR relative expression levels, HCT116 (p53+/+); format: cell-based, human
# [11] = tested on: Ub-AMC; experiment: Ub-AMC hydrolysis, Michaelis-Menten enzyme kinetics and relative activity of USP constructs; format: biochemical
# Method: as §1
# Chain of cUSP47CD (Q22240 entry or part of it): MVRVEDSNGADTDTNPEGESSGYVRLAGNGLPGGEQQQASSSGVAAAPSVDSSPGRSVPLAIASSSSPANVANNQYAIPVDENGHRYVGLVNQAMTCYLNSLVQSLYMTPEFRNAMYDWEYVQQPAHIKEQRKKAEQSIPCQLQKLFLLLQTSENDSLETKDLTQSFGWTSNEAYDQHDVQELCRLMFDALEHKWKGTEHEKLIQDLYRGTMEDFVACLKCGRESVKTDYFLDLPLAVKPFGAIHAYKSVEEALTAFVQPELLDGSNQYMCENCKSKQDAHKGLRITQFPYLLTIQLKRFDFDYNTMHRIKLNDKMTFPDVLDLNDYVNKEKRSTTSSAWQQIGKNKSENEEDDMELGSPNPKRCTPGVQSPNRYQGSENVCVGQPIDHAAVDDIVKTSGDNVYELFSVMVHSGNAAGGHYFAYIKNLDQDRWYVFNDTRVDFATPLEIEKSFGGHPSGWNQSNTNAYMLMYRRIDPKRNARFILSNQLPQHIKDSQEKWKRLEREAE
# T2 sequence (Q93009 208-560): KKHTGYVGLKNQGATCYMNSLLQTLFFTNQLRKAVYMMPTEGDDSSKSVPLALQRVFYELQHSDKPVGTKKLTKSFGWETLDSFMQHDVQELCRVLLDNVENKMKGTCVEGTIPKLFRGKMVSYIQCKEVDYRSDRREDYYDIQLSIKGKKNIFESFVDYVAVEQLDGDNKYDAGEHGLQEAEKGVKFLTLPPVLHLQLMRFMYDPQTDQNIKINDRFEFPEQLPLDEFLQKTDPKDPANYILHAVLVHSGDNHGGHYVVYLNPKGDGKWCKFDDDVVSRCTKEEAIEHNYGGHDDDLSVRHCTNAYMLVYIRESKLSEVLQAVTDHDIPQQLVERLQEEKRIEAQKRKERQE
# T1 sequence (Q93009 208-560 N460A/H461A): as the sequence (Q93009 208-560) above, with N253A, H254A counted along it
# T3 sequence (Q93009 whole entry): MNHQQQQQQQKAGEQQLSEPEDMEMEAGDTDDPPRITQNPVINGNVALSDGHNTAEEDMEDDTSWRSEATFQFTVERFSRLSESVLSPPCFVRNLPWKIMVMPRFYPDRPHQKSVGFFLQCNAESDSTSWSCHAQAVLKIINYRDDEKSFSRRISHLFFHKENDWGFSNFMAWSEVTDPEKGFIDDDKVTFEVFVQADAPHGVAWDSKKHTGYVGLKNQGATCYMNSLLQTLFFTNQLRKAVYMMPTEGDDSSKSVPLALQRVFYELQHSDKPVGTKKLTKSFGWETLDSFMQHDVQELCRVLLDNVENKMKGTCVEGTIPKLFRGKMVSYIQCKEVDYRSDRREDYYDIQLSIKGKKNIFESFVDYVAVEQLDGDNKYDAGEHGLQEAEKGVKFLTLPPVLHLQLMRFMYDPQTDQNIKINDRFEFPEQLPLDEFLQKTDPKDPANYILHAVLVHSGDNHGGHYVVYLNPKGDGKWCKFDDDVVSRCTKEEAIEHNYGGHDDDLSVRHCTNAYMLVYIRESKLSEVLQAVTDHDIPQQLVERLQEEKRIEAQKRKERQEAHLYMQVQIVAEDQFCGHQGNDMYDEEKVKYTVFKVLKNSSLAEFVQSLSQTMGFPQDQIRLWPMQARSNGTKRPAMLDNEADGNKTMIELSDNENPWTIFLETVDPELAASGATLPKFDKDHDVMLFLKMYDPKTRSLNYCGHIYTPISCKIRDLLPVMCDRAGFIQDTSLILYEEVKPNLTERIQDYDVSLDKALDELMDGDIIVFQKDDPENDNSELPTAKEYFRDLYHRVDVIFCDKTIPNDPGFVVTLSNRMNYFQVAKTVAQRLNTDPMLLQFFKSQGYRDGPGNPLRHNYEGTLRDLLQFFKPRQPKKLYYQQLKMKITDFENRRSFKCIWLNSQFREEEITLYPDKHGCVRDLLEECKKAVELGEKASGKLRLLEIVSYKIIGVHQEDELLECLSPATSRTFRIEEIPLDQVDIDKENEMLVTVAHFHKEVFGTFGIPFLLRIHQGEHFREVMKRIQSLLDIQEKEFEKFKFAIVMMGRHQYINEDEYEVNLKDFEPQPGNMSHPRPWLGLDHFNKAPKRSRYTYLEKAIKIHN
molecule,measurement,setting,value
O=C(C[C@@H](C(F)F)n1ccc(F)n1)N1CCC(O)(Cn2cnc3c(cnn3-c3ccc(F)cc3)c2=O)CC1 [FT671],Enzyme activity cUSP47CD+FT671 relative to cUSP47CD without FT671 (=100),"[1]; FT671 5 μM, Ub-AMC 35 μM, mean and three replicates, 5 µM",108.41 and 98.6437 and 106.057
same,remaining activity at 5 µM,"[1]; FT671 5 μM, Ub-AMC 35 μM, mean and three replicates, read-out: Enzyme activity cUSP47CD+FT671 relative to cUSP47CD without FT671 (=100)",104%
same,inhibition of cUSP47CD wild type by FT671,"[1]; FT671 5 μM, Ub-AMC, Fig. 5d",no inhibition
same,potency and specificity for USP7,[2],high potency and specificity only for USP7
same,reduction in the activity of hUSP7CD^N460AH461A in the presence of FT671,[3],~ 80%
same,change in activity of cUSP47CD^R309N with FT671,[4],no change in the activity
same,inhibition of cUSP47CD^R309NA416NA417H by FT671,[5],even more inhibition
same,inhibition of USP7 wild type by FT671,"[6]; FT671 5 μM, Ub-AMC, Fig. 5d",complete inhibition
same,reduction in the activity of cUSP47CD^A416NA417H with FT671,[7],~40%
CCc1c(-c2ccc(C(=O)NC)nc2)cnc(N)c1-c1ccc(O)cc1 [GNE6776],potency and specificity for USP7,[2],high potency and specificity only for USP7
CS(=O)(=O)c1ccc(NC(=O)c2cc(C#N)c(Sc3c(Cl)cncc3Cl)s2)cc1 [P50429],IC50,"[1]; Ub-AMC, USP47 50 nM, 10 min at 25 °C, triplicate, mean ± SD",1.4 ± 0.2 µM
same,"Residual enzymatic activity, cUSP47CD_IC50(p50429)","[1]; inhibitor concentration 0.0244141, three replicates, 0.0244141 µM",98.3931 and 102.68
same,remaining activity at 0.0244141 µM,"[1]; inhibitor concentration 0.0244141, three replicates, read-out: Residual enzymatic activity, cUSP47CD_IC50(p50429)",106%
same,"Residual enzymatic activity, cUSP47CD_IC50(p50429)","[1]; inhibitor concentration 0.0488281, three replicates, 0.0488281 µM",94.8604 and 95.1269
same,remaining activity at 0.0488281 µM,"[1]; inhibitor concentration 0.0488281, three replicates, read-out: Residual enzymatic activity, cUSP47CD_IC50(p50429)",100%
same,"Residual enzymatic activity, cUSP47CD_IC50(p50429)","[1]; inhibitor concentration 0.0976562, three replicates, 0.0976562 µM",90.0141 and 90.4933
same,remaining activity at 0.0976562 µM,"[1]; inhibitor concentration 0.0976562, three replicates, read-out: Residual enzymatic activity, cUSP47CD_IC50(p50429)",86.3%
same,"Residual enzymatic activity, cUSP47CD_IC50(p50429)","[1]; inhibitor concentration 0.195312, three replicates, 0.195312 µM",70.9575 and 84.4737
same,remaining activity at 0.195312 µM,"[1]; inhibitor concentration 0.195312, three replicates, read-out: Residual enzymatic activity, cUSP47CD_IC50(p50429)",90.3%
same,"Residual enzymatic activity, cUSP47CD_IC50(p50429)","[1]; inhibitor concentration 0.390625, three replicates, 0.390625 µM",71.1433 and 81.3617
same,remaining activity at 0.390625 µM,"[1]; inhibitor concentration 0.390625, three replicates, read-out: Residual enzymatic activity, cUSP47CD_IC50(p50429)",83.2%
same,"Residual enzymatic activity, cUSP47CD_IC50(p50429)","[1]; inhibitor concentration 0.78125, three replicates, 0.78125 µM",64.5756 and 70.9586
same,remaining activity at 0.78125 µM,"[1]; inhibitor concentration 0.78125, three replicates, read-out: Residual enzymatic activity, cUSP47CD_IC50(p50429)",71.1%
same,"Residual enzymatic activity, cUSP47CD_IC50(p50429)","[1]; inhibitor concentration 1.5625, three replicates, 1.5625 µM",47.6458 and 50.9074
same,remaining activity at 1.5625 µM,"[1]; inhibitor concentration 1.5625, three replicates, read-out: Residual enzymatic activity, cUSP47CD_IC50(p50429)",52.3%
same,"Residual enzymatic activity, cUSP47CD_IC50(p50429)","[1]; inhibitor concentration 3.125, three replicates, 3.125 µM",23.3806 and 22.8255
same,remaining activity at 3.125 µM,"[1]; inhibitor concentration 3.125, three replicates, read-out: Residual enzymatic activity, cUSP47CD_IC50(p50429)",24.7%
same,"Residual enzymatic activity, cUSP47CD_IC50(p50429)","[1]; inhibitor concentration 6.25, three replicates, 6.25 µM",13.3082 and 13.4812
same,remaining activity at 6.25 µM,"[1]; inhibitor concentration 6.25, three replicates, read-out: Residual enzymatic activity, cUSP47CD_IC50(p50429)",23%
same,"Residual enzymatic activity, cUSP47CD_IC50(p50429)","[1]; inhibitor concentration 12.5, three replicates, 12.5 µM",11.6652 and 7.474
same,remaining activity at 12.5 µM,"[1]; inhibitor concentration 12.5, three replicates, read-out: Residual enzymatic activity, cUSP47CD_IC50(p50429)",11.3%
same,"Residual enzymatic activity, cUSP47CD_IC50(p50429)","[1]; inhibitor concentration 25, three replicates, 25 µM",6.001 and 6.389
same,remaining activity at 25 µM,"[1]; inhibitor concentration 25, three replicates, read-out: Residual enzymatic activity, cUSP47CD_IC50(p50429)",7.06%
same,"Residual enzymatic activity, cUSP47CD_IC50(p50429)","[1]; inhibitor concentration 50 (0–50 μM series), three replicates, 50 µM",4.2047 and -1.497 and -1.461
same,DUB activity on K48-linked ubiquitin chains,[8],inhibited the DUB activity
same,IC50,[6],5.3 ± 1 µM
C=C1C(=O)O[C@H]2[C@H]1CC/C(C)=C/CC[C@@]1(C)O[C@@H]21 [Parthenolide],inhibition of USP7,[2],can also inhibit both DUBs
same,inhibition of USP47,[9],can also inhibit both DUBs
C[C@H](CC(=O)N1CCC(O)(Cn2cnc3cc(NC(=O)CCN4CCN(C)CC4)ccc3c2=O)CC1)c1ccccc1 [XL188],potency and specificity for USP7,[2],high potency and specificity only for USP7
"USP7i-2: USP7 siRNA #2, 5′-ACCCUUGGACAAUAUUCCU-3′ (chemistry not given here)",relative expression level of USP7 (Q-PCR),[10],0.5662
same,relative expression level of USP47 (Q-PCR),[10],0.9671
"USP47i-1: USP47 siRNA #1, 5′-AAGCTACTCCTACTCATCTATTT-3′ (chemistry not given here)",relative expression level of USP7 (Q-PCR),[10],0.6273
same,relative expression level of USP47 (Q-PCR),[10],0.3385
"USP47i-2: USP47 siRNA #2, 5′-TGAAAAGGGATGTGCAAAA-3′ (chemistry not given here)",relative expression level of USP7 (Q-PCR),[10],0.9487
same,relative expression level of USP47 (Q-PCR),[10],0.486
B1,Km,[11],3 ± 0.6 µM
same,kcat,[11],0.03 ± 0.002 s⁻¹
